Results taken from PMC7023466, “Novel N,N′-Disubstituted Acylselenoureas as Potential Antioxidant and Cytotoxic Agents” (Antioxidants, 2020).

Legend:
[1] = system: MCF-7 cells; assay: MTT cell viability assay, MCF-7; assay type: cell-based, human; conditions: Homo sapiens, MCF7, 48 h, read-out: Growth (%) MCF-7
Experimental: (§1) The cell viability assay of each compound was carried out using the MTT assay. Each compound was dissolved in dimethyl sulfoxide (DMSO) at a concentration of 0.01 M. Serial dilutions were prepared with a non-supplemented culture medium. The effect of each compound on the cell viability was determined at two different concentrations (10 and 50 µM) in MCF-7, HTB-54, and HT-29 cells. In addition, the selected compounds were tested at six different concentrations between 0.1–100 µM in MCF-7, T47D, H1299, HTB-54, and 184B5 cells.
(§2) Briefly, 1 × 10^4 tumor cells/well or 2 × 10^4 non-tumorigenic cells/well were grown in 96-well plates for 12 h. Then, these cells were incubated with either DMSO (control) or a different concentration of each of the tested compounds for 48 h. Three hours before the termination point, 20 µL of MTT were added to measure the cellular viability. The resultant formazan crystals were dissolved in 50 µL of DMSO, and the absorbance was measured at 570 and 630 nm. The results are expressed as IC50, the half maximal inhibitory concentration. This value was calculated using OriginPro 8.5.1. software (OriginLab, Northampton, MA, USA) by nonlinear curve fitting. Furthermore, the selectivity index (SI) was calculated as the ratio of the IC50 values determined for the non-malignant and the tumor cells (IC50 (184B5)/IC50 (MCF-7). The data were obtained from at least three independent experiments performed in quadruplicates.

[2] = system: HT-29 cells; assay: MTT cell viability assay, HT-29; assay type: cell-based; conditions: Homo sapiens, 48 h, read-out: Growth (%) HT-29
Experimental: as §1, §2

[3] = system: HTB-54 cells; assay: MTT cell viability assay, HTB-54; assay type: cell-based; conditions: Homo sapiens, HTB-54, 48 h, read-out: Growth (%) HTB-54
Experimental: as §1, §2

Row | Compound | activity at 10 µM [1] [%] | activity at 50 µM [1] [%] | activity at 10 µM [2] [%] | activity at 50 µM [2] [%] | activity at 10 µM [3] [%] | activity at 50 µM [3] [%]
1 | COc1ccc(NC(=[Se])NC(=O)c2cccnc2Cl)cc1 [Compound 4c] | 86.6 | 33 | 99.1 | 51.6 | 88.9 | 68.5
2 | CSc1ccc(Cl)c(C(=O)NC(=[Se])Nc2ccc(Cl)cc2)c1 [Compound 3e] | 105 | 32.4 | 76.6 | 73 | 79.4 | 35.8
3 | COc1ccc(NC(=[Se])NC(=O)c2cc(SC)ccc2Cl)cc1 [Compound 3c] | 73.9 | 23.7 | 67.9 | 44.4 | 79 | 27.6
4 | O=C(NC(=[Se])Nc1ccccc1)c1cc2ccccc2s1 [Compound 9a] | 64.9 | 43.4 | 62 | 28.6 | 66.9 | 3.3
5 | O=C(NC(=[Se])Nc1ccc(C(F)(F)F)cc1)c1ccccc1 [Compound 1d] | 73.6 | 21.9 | 97.3 | 25.1 | 84.9 | 38.7
6 | CSc1ccc(Cl)c(C(=O)NC(=[Se])Nc2ccccc2)c1 [Compound 3a] | 84.1 | 23.1 | 71.1 | 42.7 | 88.8 | 49.9
7 | Cc1ccc(NC(=[Se])NC(=O)c2ccccc2)cc1 [Compound 1b] | 64.2 | 12.6 | 60.4 | 28 | 75.8 | 61.1
8 | O=C(NC(=[Se])Nc1ccc(Cl)cc1)c1ccccc1Cl [Compound 2e] | 118 | 16 | 77.8 | 57.9 | 96.7 | 18.6
9 | O=C(NC(=[Se])Nc1ccc(C(F)(F)F)cc1)C12CC3CC(CC(C3)C1)C2 [Compound 7d] | 87.9 | 25.3 | 49.5 | 29.6 | 92.9 | 79.8
10 | O=C(NC(=[Se])Nc1ccc(Cl)cc1)c1cccnc1Cl [Compound 4e] | 90.6 | 60.2 | 93.4 | 67 | 92.1 | 63.5
11 | Cc1ccc(NC(=[Se])NC(=O)c2cc3ccccc3s2)cc1 [Compound 9b] | 76.8 | 62.8 | 64.3 | 36.2 | 79 | 19
12 | Cc1ccc(NC(=[Se])NC(=O)c2ccccc2Cl)cc1 [Compound 2b] | 60.1 | 24.7 | 80.2 | 46.1 | 87.9 | 66.6
13 | O=C(NC(=[Se])Nc1ccccc1)c1cccnc1Cl [Compound 4a] | 68.8 | 29.3 | 99.1 | 34.1 | 83.1 | 67.6
14 | O=C(/C=C/c1ccccc1)NC(=[Se])Nc1ccccc1 [Compound 8a] | 75.8 | 15.3 | 98.6 | 34.2 | 65.2 | 49.7
15 | COc1ccc(NC(=[Se])NC(=O)c2ccccc2Cl)cc1 [Compound 2c] | 62.6 | 26.4 | 76.3 | 44.8 | 84.9 | 66.7
